The text below walks through data of patent US6812025B2, “Two hybrid assay that detects HIV-1 reverse transcriptase dimerization” (priority 2000, dated 2004).

The target in assay [1] is T1, p66/p51 heterodimer (Human immunodeficiency virus type 1 group M subtype B, UniProt P12497).
T1 construct: The enzyme is a heterodimer of p66 and p51 subunits
Nature of the assay: Y2H system, preliminary tests of TSAO on heterodimerization. The class given is cell-based, HIV-1. As to conditions: data not shown. The protocol:
(§1) Transformation of yeast and the qualitative β-galactosidase (β-gal) colony lift assay were as published (19). Quantification of protein-protein interactions was determined using the β-gal liquid assay performed on permeabilized yeast grown from three independent transformants using orthonitrophenyl-β-D-galactopyranoside as substrate (19).
To date, there are no HIV-1 RT dimerization inhibitors being used in the clinic. Nevertheless, there are several reports of HIV-1 and HIV-2 RT dimerization inhibitors based on peptides representing the conserved tryptophan repeat region of RT (32, 37). […] However, the possibility that the drug is not taken up by yeast cannot be ruled out. The availability of a Y2H assay for RT dimerization will facilitate the screening for other such inhibitors of this process according to the methods set forth herein.

The target of another assay is p66-His and GST-p51 (Human immunodeficiency virus type 1 group M subtype B, UniProt P04585). It counts as binding, HIV-1. To be noted: for enhancement of dimerization of GST-p51 and p66-His in vitro: bacterial lysates, 1-1000 fold molar excess of drug, overnight. How it is done: Cells were induced and then lysed by the addition of 1 mg/ml of lysozyme to 1 ml of lysis buffer [50 mM sodium phosphate buffer (pH 7.8), 500 mM NaCl, 0.5% Nonidet P-40, 5 mM DTT, and 1 μg/ml each of pepstatin A, aprotinin and leupeptin] and clarified. Lysates were combined and incubated for 16 hrs at 4° C. The heterodimer was captured on Glutathione Sepharose 4B beads and unbound subunits were removed by washing with lysis buffer. Heterodimer bound to beads were resolved by SDS/PAGE. For quantification of RT activity, dimers were eluted from beads with 10 mM reduced glutathione in 50 mM Tris (pH 8.0). Samples were assayed for DNA polymerase activity on homopolymeric template-primers for various times, and the activity was determined from the initial slope of the linear phase of the time course.

Assay [2] has as its target T1, p66/p51 heterodimer. To be noted: cited from earlier work.
For assay [3], the target named is p66 and p51 subunits of the HIV-1 RT (Human immunodeficiency virus type 1 group M subtype B, UniProt P12497). Kind of assay: Y2H RT heterodimerization assay measuring effect of NNRTIs on b-gal activity (wild-type lexA87-66 + Gal4AD-51). It counts as cell-based. As to conditions: for enhancement of b-gal activity (relative potency): yeast expressing lexA87-66 and Gal4AD-51, drug added to culture medium. How it is done: as §1
Yeast and bacterial strains were as described previously (22). Transformation of yeast, the qualitative b-gal colony lift assay and the quantitative b-gal liquid assay were as previously described (22).
CTY10-5d transformed constructs expressing p66 bait and p51 prey fusions were grown overnight to stationary phase in synthetic complete medium without histidine and leucine and containing 2% glucose (SC-His-Leu). […] Yeast were grown with aeration at 30° C. to OD600=0.5. The equivalent of 1 OD600 unit was pelleted for each treatment and subjected to a quantitative b-gal liquid assay.
To test the effects of NNRTIs on the association of the RT polypeptides we used a yeast genetic assay that measures RT heterodimerization (22). […] To test for the effects of the NNRTIs on this interaction, 10 drugs representing 7 different NNRTI classes were added to the culture medium during growth of the yeast and b-gal levels were determined.

Another assay concerns HIV-1. To be noted: cited from earlier work.
The target in a further assay is HIV-1 RT (Human immunodeficiency virus type 1 group M subtype B, UniProt P12497). Kind of assay: Exogenous RT assay (RT inhibitory activity). The class given is biochemical. As to conditions: results not shown.
For assay [4], the target named is T2, lexA87-66L234A and Gal4AD-HA-51L234A (Human immunodeficiency virus type 1 group M subtype B, UniProt P04585, L821A).
T2 construct: Yeast expressing p66 bait and p51 prey fusions containing the L234A mutation; expressed in transfected cells; host or cells: Saccharomyces cerevisiae CTY10-5d
The class given is cell-based, HIV-1. To be noted: yeast grown in efavirenz (1.6 μM) or UC781 (16 μM), compared to no drug. The text has this:
Samples were resolved by SDS-PAGE. The leXA87-66 fusion protein was probed using monoclonal antibodies 7E5 which specifically detects p66 (31).
Hemagglutinin (HA) antibodies were used to immunoprecipitate the p51 prey and the presence of any bound p66 bait was then detected using anti-p66 specific antibodies. For coimmunoprecipitation of the p66 bait fusions, samples were divided into two with one part processed without added NNRTI while the other was maintained in drug at the same concentration used during growth of yeast.

The target of the next assay is T3, RT heterodimer (Human immunodeficiency virus type 1 group M subtype B, UniProt P12497).
T3 construct: The enzyme is a heterodimer of p66 and p51 subunits
As to conditions: cited from earlier work.

For another assay, the target named is T4, lexA87 and Gal4AD (UniProt P04386+P0A7C2).
T4 construct: expressed in transfected cells; host or cells: Saccharomyces cerevisiae (yeast reporter strain)
T4 sequence (P0A7C2 1-87): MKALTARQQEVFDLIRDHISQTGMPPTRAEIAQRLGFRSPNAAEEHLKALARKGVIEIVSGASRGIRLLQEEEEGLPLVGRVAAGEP
T4 sequence (P04386 768-881): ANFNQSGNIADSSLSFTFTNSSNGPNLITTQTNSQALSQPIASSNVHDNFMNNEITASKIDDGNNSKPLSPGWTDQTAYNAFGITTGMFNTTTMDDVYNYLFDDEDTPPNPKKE
Kind of assay: Y2H specificity control, empty vectors pSH2-1 and pGADNOT. The class given is cell-based. As to conditions: serial dilutions, up to 15 μM of drug; data not shown. From the text: The specificity of the b-gal enhancement by NNRTIs was investigated. […].

For the molecule “2′, 5′-bis-O-(tert-butylidimethylsilyl)-3′-spiro-5″-4″-amino-1′, 2″-oxothiole-2″,2″-dioxide)]-b-D-pentofuranosyl [TSAO]”, the “effect on β-gal activity in the Y2H system” value on p66/p51 heterodimer [1] is “no inhibition of β-gal activity”. For the same molecule, the “effect on heterodimerization in in vitro binding assays” value at p66-His and GST-p51 (preliminary tests, data not shown) is “reduce heterodimerization”. For the same molecule, the “destabilization of the p66/p51 heterodimer” value at p66/p51 heterodimer [2] is “destabilize the p66/p51 heterodimer”.
As to `COc1ccc2c(c1)N(C(=O)OC(C)C)[C@@H](CSC)C(=S)N2` [HBY 097], in assay [3], the “enhancement of b-gal activity (relative potency)” value (“enhancement … (relative potency)” below) was “most potent”. The “inhibition of HIV-1 replication in vitro” value in the assay with HIV-1 is given as “extremely potent inhibitors of HIV-1 replication in vitro”.
On to `CCn1c(=O)c(C)cn([C@@H]2O[C@H](CO[Si](C)(C)C(C)(C)C)C3(OS(=O)(=O)C=C3N)[C@H]2O[Si](C)(C)C(C)(C)C)c1=O` (stereo partly drawn) [TSAOe^3T], for which the “destabilization of the p66/p51 heterodimer” value on p66/p51 heterodimer [2] is given as “more modest destabilization only detectable in the presence of denaturants”.
`Cc1occc1C(=S)Nc1ccc(Cl)c(/C=N/OC(C)(C)C)c1` [UC10]: on p66-His and GST-p51, the “enhancement of dimerization of GST-p51 and p66-His in vitro” value (“enhancement of dimerization … in vitro” below) is recorded as “poor dimerization inducers”.
For the molecule `CC(C)OC(=O)c1cc(NC(=S)OC(C)C)ccc1Cl` [UC38], at HIV-1 RT, the “RT inhibitory activity (50% inhibitory concentration), rank” value is “least active”. The “concentration of drug that mediates a 5-fold increase in b-gal activity (rank)” value in [3] (results not shown) was “least active”.
As to `CC(C)=CCOc1cc(NC(=S)c2ccoc2C)ccc1Cl` [UC781], in assay [3], the “enhancement … (relative potency)” value is given as “second most potent”. In addition, at p66-His and GST-p51, the “enhancement of dimerization … in vitro” value is on record as “poor dimerization inducers”. For the same molecule, the “amount of p66 bait coimmunoprecipitated with p51 prey (heterodimer formation), L234A” value in assay [4] is recorded as “not for the L234A mutant”. Further, in the assay with HIV-1, the “inhibition of HIV-1 replication in vitro” value was “extremely potent inhibitors of HIV-1 replication in vitro”. For the same molecule, on RT heterodimer, the “binding to the RT heterodimer” value was “bind very tightly” and the “dissociation rates (koff)” value is listed as “very slow dissociation rates”.
In the case of `CC(C)Nc1cccnc1N1CCN(C(=O)c2cc3cc(NS(C)(=O)=O)ccc3[nH]2)CC1` [delavirdine], in assay [3], the “enhancement … (relative potency)” value is listed as “devoid of b-gal enhancing activity”. For the same molecule, the “enhancement of dimerization … in vitro” value at p66-His and GST-p51 is “inactive in vitro”.
For the molecule `O=C1Nc2ccc(Cl)cc2[C@@](C#CC2CC2)(C(F)(F)F)O1` [efavirenz], at lexA87 and Gal4AD, the “b-gal activity with empty vectors” value is “no increase in b-gal activity”.
